# Measurements taken from patent publication US20260085315A1, “POLYNUCLEOTIDE COMPOSITIONS AND METHODS FOR TREATMENT OF CANCER” (APTAH BIO, INC., priority 2023, published 2026).
# Values joined by “and” are separate entries in the source; they are usually repeats but may differ in a detail not shown here. Equal values may be shown once. “Also recorded” adds a separate entry of the source. d = 2'-deoxy (DNA); m = 2'-O-methyl
# Tests used:
# [1] = test system: Human Glioblastoma Cancer (U-87MG) xenograft; test: Histopathology of tumor samples with scoring; format: in vivo, athymic nude mice; parameters: key: 4: Minimal; 3: Mild; 2: Moderate; 1: Prominent; settings: individual animals; G3 APT20TTMG, G2 TMZ
# Text: The fixed tissues were processed for routine paraffin embedding followed by sectioning (3-6 micron). The sections were stained with hematoxylin and eosin. The prepared slides were examined under microscope by the study pathologist to record histopathological findings in tumor samples, related to capsule formation, cell type, connective tissue stroma, apoptosis, necrosis, lipid content, nucleus-to-cytoplasmic (N:C) ratio, nuclei mitotic figures, tumor grade, and level of differentiation. Each histopathological finding and tumor volume were assigned a score ranging from 1 to 4 (Table 7). The sum of these scores for each sample was used to infer the tumor aggressiveness.
# [2] = test system: SH-SY5Y cell line; test: Distribution of cell cycle phases; format: cell-based, Human; settings: any concentration evaluated
# [3] = test system: SH-SY5Y cell line; test: MTT mitochondrial activity / cell viability; format: cell-based, Human; settings: any concentration; 24 and 48 hours
# Procedure: FIG. 22A-22B illustrates the evaluation of mitochondrial activity in SH-SY5Y cell line after incubation in ASMO1. MTT assay was performed after 24 hours (FIG. 22A) and 48 hours (FIG. 22B) of incubation.
# [4] = test system: Ki67; test: Ki67 immunohistochemistry of tumor samples; format: in vivo, athymic nude mice; settings: treated groups vs non-treated control
# Procedure: Immunohistochemistry analysis of Ki67 in tumor samples was also performed. Quantification of the Ki67 in the sections was carried out by visual estimation (Ki67+ve) using two approaches: count of Ki-67 positive tumor cells and Ki67 total area. This process was done using ImageJ public domain software. In the case of the Ki67 total area evaluation, the ImageJ threshold function was used and each image was split into its constituent red, blue and green grayscale images. Further, one of these was selected and processed for threshold values. Values were selected so that the relevant areas (Ki67+ve cells, in this case) were highlighted and the % of area occupied by the selected threshold limits measured.
# As shown in FIG. 35A-B, graphs present the individual values of protein quantification of tumors from 8 animals. (A) Ki-67 area, (B) Ki-67 positive tumor cells count.
# [5] = test system: Human Glioblastoma Cancer (U-87MG) xenograft; test: Human glioblastoma xenograft tumor growth; format: in vivo, athymic nude mice; settings: for tumor reduction in relation to the negative control: APT20TTMG 20 mg/kg i.v. q3d, TMZ 5 mg/kg p.o. daily
# Procedure: Subcutaneous inoculation of the tumorigenic Human Glioblastoma Cancer Cell line (U-87MG) results in the formation of solid tumor in athymic nude mice. Under pathogen free conditions, the tumor retains its own characteristics and grows using the growth factors supplied by the host animal. The ability of administered ASMO1 to inhibit the growth of tumor can be a valuable tool to evaluate its efficacy as an anti-tumor agent. Measurement of tumor size at defined intervals of time generates data that can be used to calculate various end point parameters derived from tumor and understand the potency of the test compounds.
# Human glioblastoma cancer cells (U-87MG) were cultured and expanded in EMEM (Eagle's Minimum Essential Medium) supplemented with 10% Fetal Bovine Serum (FBS) at 37° C. and 5% CO2. The cells growing at log phase were harvested by trypsinization and centrifuged for 3 minutes at 800 rpm to form a pellet. The pellet was further washed with PBS. Cell suspension stock was prepared to obtain the required cell count. Before cell inoculation, cell viability was determined using trypan blue. 25 μL of cell suspension was stained with 25 μL of trypan blue and viable cells were counted using Neubauer's chamber. Cell number was adjusted by adding serum free media to achieve desired concentration, i.e., 10×10^7/mL.
# Cells were diluted such that the concentration of the cells was 10 million cells/100 μL of serum free medium. Overnight thawed Matrigel and cells with medium were mixed 1:1 and a total volume of 200 μL was injected subcutaneously to the donor animals (n=5) at flank region.
# Donor animals were monitored for solid tumor growth for at least 3-4 weeks. Tumor size was measured using digital caliper (MITUTOYO, Japan, CP-15Mx) and volume was calculated by using the formula: (L*W2)/2. Once the tumor reached required size ˜500 mm^3, the donor animals were humanely sacrificed, the tumor was harvested and fragmented into ˜30 mg size and implanted subcutaneously to experimental animals (n=50) using the device. All the animals was monitored alternate day for tumor growth/size.
# Once the tumor size reached ˜100 mm^3, animals were selected and randomized by stratification method using tumor size into three groups (G1-G3). Treatment for G1-G3 was initiated at this stage. Each group was comprised of 8 animals.
# • G1 was served as vehicle control group and treated with normal saline at the dose of 5 mL/kg, daily, intravenously for 3 weeks. • G2 was served as Reference Item treated group and treated with TMZ at the dose of 5 mg/kg, p.o., daily for 3 weeks. • G3 was treated with APT20TTMG at the dose of 20 mg/kg, intravenously, every third day (q3d) for 3 weeks.
# Body weight and tumor size were measured weekly twice using digital caliper. At termination, blood was collected through retro-orbital route. Serum/plasma was separated and stored at deep freezer (−20° C.). Post blood collection, animals were humanely sacrificed by CO2 asphyxiation as per latest guidelines issued by CPCSEA. All the vital organ (brain, kidney, liver, lungs, heart) and tumor were dissected out. Vital organs were fixed in 10% NBF and stored. Tumor tissue was dissected out, weighed and portion of tumor tissue was fixed in 10% NBF and another portion is snap frozen and stored at deep freezer (−80° C.).
# As shown in FIG. 34A-C, tumor fragments from the U-87MG cell line were implanted in the animals and once the tumor size reached ˜100 mm^3 animals were randomized into 3 experimental groups (G1, G2, and G3). G1: Vehicle, (G2) Reference Item Temozolomide, and (G3) APT20TTMG for a total of 22 days. (A) The tumor volume of the animals was measured twice/a week. (B) Animals were weighed throughout the experiment and the change in weight gain compared to pre-treatment weight was plotted. (C) After the euthanasia of the animals, the tumors were removed and weighed.
# [6] = test system: U87-MG cell line; test: Distribution of cell cycle phases; format: cell-based, Human; settings: 0.25 μM, 48 hours
# Procedure: The methodologies for this Example are the same as shown in Example 4.
# Cells were plated and treated with 3 different concentrations (0.25, 0.5, and 1 μM) of APT20TTMG and cell cycle phases were evaluated after 48 hours of incubation. Cell proliferation is regulated by cell cycle progression. Phases: Sub/G1: non-proliferative state (quiescence); G1/G0: cell growth; S: DNA replication; G2/M: DNA segregation and mitosis. Results were expressed as Mean Standard Error of three independent experiments.
substance,measurement,setting,value
"APT20TTMG: engineered polynucleotide ASMO1, 24 nt, SEQ ID NO: 3 gtccactaacctttcaggccagcg; targeting moieties 5′-GTCCA-3′ and 5′-CG-3′, U1 snRNP recruiting moiety (GTCCACTAACCTTTCAGGCCAGCG; sugars from the 5' end m5 d14 m5, all phosphorothioate, methylation of C and T or U not given here)",Score: Mitotic figures,[1],2
same,Score: Necrosis,[1],3 and 2
same,cell cycle phases,[2],no change in cell cycle phases
same,cell viability (MTT),[3],no change in cell viability
same,Ki67 (positive tumor cell count and total area),[4],did not detect any statistical differences
same,tumor growth (tumor volume) vs vehicle group,"[5]; APT20TTMG 20 mg/kg i.v. every third day 3 weeks, TMZ 5 mg/kg p.o. daily 3 weeks",inhibit tumor growth from day 16
same,final tumor weight,"[5]; between APT20TTMG, TMZ and vehicle groups, after euthanasia",no statistical difference
same,tumor reduction in relation to the negative control,[5]; day 20,46.7±10.7%
same,tumor reduction in relation to the negative control,[5]; day 22,42±13.2%
same,Volume (tumor),"[5]; individual animals, G3 APT20TTMG, G2 TMZ",Volume 321.5; also recorded: Volume 768.1; also recorded: Volume 796.8; also recorded: Volume 62.3; also recorded: Volume 1441.5; also recorded: Volume 953.5
same,cells in G1/G0 phase,[6]; p=0.0036,reduction in retention
same,cells in G2/M phase,[6]; p=0.0425,increase in retention
